# Measured values from patent publication US7098220B2, “Imidazopyridine derivatives, preparation method and pharmaceutical compositions containing same” (Les Laboratoires Servier, priority 2002, dated 2006).
# Tests used:
# AMPK = AMPK activity in a cell model: hepatocytes isolated from rats; type: cell-based, rat; conditions: 500 μM, after 30 minutes, SAMS peptide phosphorylation with [γ-32P]-ATP
# Method: AMPK Activity in a Cell Model: Hepatocytes Isolated from Rats
# The hepatocytes are isolated according to the technique of Berry and Friend [J. Cell Biol, 43, 506–520 (1969)]. The AMPK activity was measured according to the method described by Davies el al. [Eur. J. Biochem., 186, 123–128 (1989)]. The latter involves phosphorylation starting from [γ-^32P]-ATP of a peptide substrate (SAMS), based on the sequence surrounding the site phosphorylated by the AMPK of the ACC. The reaction for measuring the AMPK activity ends with the deposition of an aliquot of the reaction medium on a phosphocellulose paper (Whatman P81), on which the SAMS peptide is fixed and the radioactivity of which is measured after washing.
# By way of example, the compound of Example 4 activates AMPK, after 30 minutes at a concentration of 500 μM, by 312% (compared with the base value), whereas the same concentration of AICA riboside, used as reference, under the same conditions, activates it by 178%.
# obese ob/ob mouse = assay: Hypolipaemic activity in the obese ob/ob mouse; type: in vivo
# Method: The products of the invention were tested in vivo in the obese ob/ob mouse, used as a model of obesity-associated insulin resistance.
SMILES,AMPK activation (compared with the base value) (AMPK),reduction of triglycerides (obese ob/ob mouse; 125 mg/kg per os),reduction of triglycerides (obese ob/ob mouse; 250 mg/kg per os)
NC(=O)c1ncn([C@@H]2O[C@H](CO)[C@@H](O)[C@H]2O)c1N [AICA riboside],178%,–,–
"Nc1nc2cccnc2n1C1CCCCCC1 [Example 4, 3-Cycloheptyl-3H-imidazo[4,5-b]pyridine-2-amine]",312%,significantly reduces the triglycerides,–
CN(C)C(=N)N=C(N)N [metformin],–,–,the same reduction is obtained
